Consider 7 compounds from PubChem BioAssay (NCI).

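Results reflect a 48-hour exposure of cells in 96-well plates to compound at five concentrations. GI50 is the concentration that inhibits growth by half. TGI: total growth inhibition.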 Some results are limits rather than exact numbers.

Some test systems named below: OVCAR-4 ovarian; OVCAR-3 ovarian; MOLT-4 leukemia; DU-145 prostate; ACHN renal; SN12C renal; HS 578T breast; NCI/ADR-RES ovarian; U251 CNS; CAKI-1 renal.
Assay in all cases: NCI anticancer screen, dose series, 48 h

As for `Cc1cc(S(=O)(=O)/N=C/N(C)C)c(SC(=O)c2ccc(Cl)cc2)cc1Cl`, the GI50 with OVCAR-4 ovarian was 60.1 µM; with OVCAR-3 ovarian, 33.3 µM; in the experiment on MOLT-4 leukemia it was 61 µM; in the experiment with DU-145 prostate, 19.1 µM; in the experiment with ACHN renal, 22.7 µM; in the experiment on SN12C renal, 26.8 µM. In addition, the GI50 with HS 578T breast was 20.7 µM; in the experiment on NCI/ADR-RES ovarian, 28.4 µM; in the experiment on U251 CNS it was 27 µM; in the experiment on CAKI-1 renal, 36.6 µM. The TGI was above 100 µM in the experiment on OVCAR-4 ovarian; 91.1 µM in the experiment with OVCAR-3 ovarian; above 100 µM in the experiment with MOLT-4 leukemia; above 100 µM in the experiment with DU-145 prostate; 47.1 µM in the experiment with ACHN renal; 79.8 µM in the experiment on SN12C renal. Also, the TGI in the experiment on HS 578T breast came out at 65 µM; in the experiment with NCI/ADR-RES ovarian it was 72.2 µM; in the experiment on U251 CNS, 71.1 µM; with CAKI-1 renal, 92.3 µM.

Take `COc1cccc(-c2ccc3c(c2)C2CCN(Cc4ccccc4)C3C2)c1` (stereo not given): the GI50 is 5.71 µM in the experiment with OVCAR-4 ovarian; 4.49 µM with OVCAR-3 ovarian; 7.17 µM with MOLT-4 leukemia; 16.4 µM in the experiment on DU-145 prostate; 11.9 µM in the experiment on ACHN renal; 11.2 µM in the experiment with SN12C renal. For the same compound, the GI50 with HS 578T breast is 8.64 µM; with NCI/ADR-RES ovarian, 8.94 µM; in the experiment with U251 CNS, 7.63 µM; in the experiment on CAKI-1 renal, 10.8 µM. Also, the TGI worked out at 58.2 µM with OVCAR-4 ovarian; 17 µM in the experiment with OVCAR-3 ovarian; 40.5 µM in the experiment with MOLT-4 leukemia; 43.9 µM in the experiment with DU-145 prostate; 38.1 µM with ACHN renal; 30.3 µM with SN12C renal. Moreover, the TGI came out at 31 µM in the experiment on HS 578T breast, 32.5 µM in the experiment on NCI/ADR-RES ovarian, 22 µM in the experiment on U251 CNS and 40.1 µM with CAKI-1 renal.

In the case of `Clc1ccc(-c2nnc(-c3cccc4ccccc34)o2)cc1Cl`, the TGI in the experiment with OVCAR-4 ovarian, in the experiment on OVCAR-3 ovarian, in the experiment with MOLT-4 leukemia, with DU-145 prostate, with ACHN renal and with SN12C renal was above 100 µM throughout. Further, the TGI in the experiment on HS 578T breast, in the experiment with NCI/ADR-RES ovarian, in the experiment with U251 CNS and in the experiment on CAKI-1 renal was above 100 µM in each case.

For `COc1cc(OC)c2nccc(NCCCN(C)C)c2c1[N+](=O)[O-]`, the TGI in the experiment on OVCAR-4 ovarian, with OVCAR-3 ovarian, in the experiment on MOLT-4 leukemia, in the experiment on DU-145 prostate, in the experiment on ACHN renal and in the experiment with SN12C renal was above 100 µM each time. The TGI in the experiment on HS 578T breast, in the experiment on NCI/ADR-RES ovarian, with U251 CNS and in the experiment with CAKI-1 renal was above 100 µM throughout.

In the case of `Brc1ccc2[nH]cc(-c3nc(-c4c[nH]c5ncccc45)cs3)c2c1`, the GI50 with OVCAR-4 ovarian was 3.31 µM; in the experiment on OVCAR-3 ovarian it was 5.48 µM; in the experiment on MOLT-4 leukemia, 2.97 µM; with DU-145 prostate it was 4.14 µM; in the experiment on ACHN renal, 2.66 µM; in the experiment with SN12C renal, 4.1 µM. In addition, the GI50 in the experiment with HS 578T breast was 10.7 µM; in the experiment with NCI/ADR-RES ovarian, 3.38 µM; in the experiment on U251 CNS, 3.37 µM; in the experiment on CAKI-1 renal it was 1.67 µM. Further, the TGI came out at 20.8 µM in the experiment on OVCAR-4 ovarian; 18.6 µM with OVCAR-3 ovarian; 35.6 µM in the experiment on MOLT-4 leukemia; 15.7 µM in the experiment with DU-145 prostate; 12.9 µM in the experiment with ACHN renal; 19.4 µM with SN12C renal. Besides, the TGI was above 100 µM in the experiment on HS 578T breast, 26.1 µM with NCI/ADR-RES ovarian, 12.8 µM in the experiment with U251 CNS and 10.5 µM in the experiment on CAKI-1 renal.

Turning to `COc1cccc(-c2nn(-c3ccccc3)cc2-c2ccnc(NCCNC(=O)Nc3cccc(C(F)(F)F)c3)c2)c1`, the GI50 in the experiment with OVCAR-4 ovarian was 2.36 µM; with OVCAR-3 ovarian, 1.99 µM; in the experiment on MOLT-4 leukemia, 2.02 µM; in the experiment on DU-145 prostate, 4.16 µM; in the experiment on ACHN renal, 2.91 µM; with SN12C renal, 1.95 µM. The GI50 in the experiment on HS 578T breast was 1.99 µM; in the experiment on NCI/ADR-RES ovarian, 2.22 µM; in the experiment on U251 CNS, 2.28 µM; with CAKI-1 renal, 1.95 µM. For the same compound, the TGI in the experiment on OVCAR-4 ovarian was 8.13 µM; with OVCAR-3 ovarian it was 4.32 µM; in the experiment on MOLT-4 leukemia, 4.81 µM; in the experiment with DU-145 prostate, 14.9 µM; in the experiment with ACHN renal, 10.4 µM; with SN12C renal it was 4.06 µM. The TGI in the experiment with HS 578T breast was determined as 5.2 µM; with NCI/ADR-RES ovarian it was 5.82 µM; in the experiment on U251 CNS it was 5.26 µM; in the experiment with CAKI-1 renal, 5.62 µM.

In the case of `Nc1nc(N)c(C=Nc2ccc(Br)cc2)c(Nc2ccc(Br)cc2)n1`, the GI50 was 10.6 µM in the experiment on OVCAR-4 ovarian; 11.8 µM with OVCAR-3 ovarian; 10.7 µM in the experiment on MOLT-4 leukemia; 12.3 µM with DU-145 prostate; 8.96 µM in the experiment with ACHN renal; 8.19 µM in the experiment with SN12C renal. Also, the GI50 in the experiment with HS 578T breast was 8.96 µM; with NCI/ADR-RES ovarian it was 5.54 µM; in the experiment on U251 CNS it was 12 µM; with CAKI-1 renal it was 3.45 µM. The TGI in the experiment on OVCAR-4 ovarian was 25 µM; with OVCAR-3 ovarian, 25.3 µM; with MOLT-4 leukemia, 28.5 µM; in the experiment with DU-145 prostate, 28.6 µM; in the experiment with ACHN renal, 28 µM; in the experiment on SN12C renal, 33.6 µM. Also, the TGI in the experiment with HS 578T breast worked out at 26.8 µM; in the experiment on NCI/ADR-RES ovarian, 26.3 µM; in the experiment on U251 CNS, 30.1 µM; with CAKI-1 renal, 18.7 µM.
